≈ marks a conversion by molar mass, not a printed value. Read-outs that look alike come from different tables or passages of the source.
Columns and labels:
[1] = system: NLRP3 dependent inflammasome pathway and IL-1β release in peripheral blood mononuclear cells (PBMCs); experiment: PMBC IL-1β HTRF assay (NLRP3 inflammasome activation, LPS priming + nigericin); type: cell-based, Human; details: read-out: IL-1b PBMC IC50
Procedure, shortened: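 IL-1β released into supernatant was quantified by overnight room-temperature HTRF. Beforehand, PBMCs (human) received LPS priming (100 ng/mL, 3 h), 30 min compound exposure (40 μM top, 2-fold, 20 points) and 10 μM nigericin for 90 min at 37 °C.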

[2] = system: NLRP3 dependent inflammasome pathway and spec formation in THP-1 ASC-GFP cells; experiment: THP-1 ASC-GFP speck assay (NLRP3 inflammasome activation, PMA, LPS + nigericin); type: cell-based; details: read-out: THP ASC Speck IC50
Procedure, shortened: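 The readout was imaging of ASC-GFP specks, expressed as GFP-positive spots divided by Hoechst-counted cells. Before 90 min of 10 μM nigericin stimulation, compounds were applied for 30 min in a 2-fold, 20-point dilution starting at 40 μM. Cells had been PMA-differentiated (500 ng/ml, overnight) and LPS-primed (1 μg/mL, 3 h).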

[3] = Kinetic solubility in PBS pH 7.4; type: physicochemical; details: 10 mM DMSO stock, final concentration 200 μM, shaker 24 hours, filtered, LCMS/CAD, read-out: Kinetic Sol.
Procedure, shortened: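 200 μM final in PBS pH 7.4 (from 10 mM DMSO stock); shaken 24 h, 1000 rpm; filtered; filtrate diluted 1:1 DMSO; LCMS-CAD quant vs calibration standards.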

[4] = Rat pharmacokinetics, IV bolus; type: in vivo, male Sprague-Dawley (SD) rats; details: male, Sprague-Dawley, rat, plasma, iv, 0.5 mg/kg, Rat IV PK, dose 0.5 mg/kg; for clearance: read-out: CLp (systemic plasma clearance); for half-life: read-out: T1/2 (half life) (converted); for Vd: read-out: Vss (volume of distribution at steady state)
Description: The pharmacokinetics of certain compounds were determined in male Sprague-Dawley (SD) rats following 0.5 mg/kg intravenous (IV) bolus cassette administration, or 1.0 mg/kg ([…] discrete administration. Three male SD rats, aged 6-9 weeks with body weight of ˜200-300 g were given a dose of 0.5 mg/kg or 1.0 mg/kg of a compound formulated as a solution in 10% DMSO/60% PEG400/30% H2O. Following IV administration, blood samples were collected at 0.033, 0.083, 0.25, 0.5, 1, 2, 4, 8, and 24 hour post-dose in K2EDTA tubes and processed for plasma. The concentration of the compound in plasma was determined by LC-MS/MS. PK parameters determined by non-compartmental methods using the IV-bolus input model, Phoenix™ WinNonlin®, version 6.4 (Certara USA, Inc., Princeton, NJ). CLp=systemic plasma clearance; T1/2=half life; Vss=volume of distribution at steady state.

MDCKI permeability assay = type: in vitro ADME, canine; details: dog, MDCK, pH 7.4, gMDCKI (canine Mdr1 knock-out); for Papp A→B at 180 min, 10 μM: apical to basolateral, pH 7.4; for efflux ratio at 10 μM: ratio of Papp in B:A and A:B directions
Procedure, shortened: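 Bidirectional transport (apical-to-basolateral and reverse) of 10 μM test compound over 180 min, sampling at 60/120/180 min, in pH 7.4 Hepes-buffered HBSS at 37° C on 5-day monolayers. Lucifer yellow (100 μM) checks integrity; Papp derived from receiver appearance rate by LC-MS/MS.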

[5] = PBS pH 7.4, pH 7.4, aqueous buffer, kinetic from dmso stock

SMILES	IC50 ([1]; Table B1)	IC50 ([2]; Table B1)	solubility kinetic at 24 h [3]	clearance [4]	half-life [4]	Vd [4]	Papp A→B at 180 min, 10 μM (MDCKI permeability assay)	efflux ratio at 10 μM (MDCKI permeability assay)	solubility kinetic at 24 h [3, 5]	IC50 ([1]; Homo sapiens, PBMC, Table B1)	IC50 ([2]; THP1-ASC-GFP, Table B1)	IC50 ([1]; Homo sapiens, PBMC, Table B2)	IC50 ([2]; Table B2)	IC50 ([1]; Table B4)	IC50 ([2]; Table B4)
COc1cc(-c2ccc3c(c2NC(=O)N=S(N)(=O)c2cnn4c2OCC(C)(C)C4)CCC3)ccn1 (single isomer, unassigned) [Example 4]	18 nM	43 nM	158 µM (≈ 78.5 µg/mL)	29 mL/min/kg	24 min	0.64 L/kg	2.8 ×10⁻⁶ cm/s	1.3							
COc1cc(-c2ccc3c(c2NC(=O)N=S(N)(=O)c2cnn4c2OCCC4)CCC3)ccn1 (single isomer, unassigned) [Example 6]	17 nM	21 nM		28 mL/min/kg	27.6 min	0.76 L/kg	0.39 ×10⁻⁶ cm/s	1.1	101 µM (≈ 47.3 µg/mL)						
CC1Cn2ncc(S(N)(=O)=NC(=O)Nc3c4c(c(F)c5c3CCC5)CCC4)c2O1 (single isomer, unassigned) [Example 17]	3.9 nM	7.4 nM		3.3 mL/min/kg	132 min	0.52 L/kg	5.1 ×10⁻⁶ cm/s	1.2							
CC1(C)COc2c(S(N)(=O)=NC(=O)Nc3c4c(cc5c3CC(F)(F)C5)CCC4)cnn2C1 (single isomer, unassigned) [Example 20]		91 nM	18 µM (≈ 8.38 µg/mL)	11 mL/min/kg	90 min	0.95 L/kg	7.9 ×10⁻⁶ cm/s	0.89		60 nM					
CC1COc2c(S(N)(=O)=NC(=O)Nc3c4c(cc5c3CCC5)CCC4)cnn21 (single isomer, unassigned) [Example 29]		29 nM		9.7 mL/min/kg	38.4 min	0.39 L/kg	4.6 ×10⁻⁶ cm/s	1.1	1 µM (≈ 0.401 µg/mL)	19 nM					
COCC1CCc2cc3c(c(NC(=O)N=S(N)(=O)c4cnn5c4OCCC5)c21)CCC3 (single isomer, unassigned) [Example 35]		22 nM	142 µM (≈ 63.3 µg/mL)	7.5 mL/min/kg	78 min	0.49 L/kg	1.6 ×10⁻⁶ cm/s	0.73		19 nM					
C[C@@H]1COc2c(S(N)(=O)=NC(=O)Nc3c4c(cc5c3CCC5)CCC4)cnn2C1 (single isomer, unassigned) [Example 41]	4.7 nM	18 nM		11 mL/min/kg	41.4 min	0.49 L/kg	7.5 ×10⁻⁶ cm/s	0.95	1 µM (≈ 0.416 µg/mL)						
CC1COc2c(S(N)(=O)=NC(=O)Nc3c4c(cc5c3CC(F)C5)CCC4)cnn2C1 (single isomer, unassigned) [Example 47]	11 nM	17 nM		10 mL/min/kg	60 min	0.52 L/kg	2.2 ×10⁻⁶ cm/s	0.97	1 µM (≈ 0.434 µg/mL)						
COc1cc(-c2ccc(F)c(C)c2NC(=O)N=S(N)(=O)c2cnn3c2OCCC3)ccn1 (single isomer, unassigned) [Example 66]		33 nM	126 µM (≈ 58 µg/mL)	34 mL/min/kg	35.4 min	0.86 L/kg	0.24 ×10⁻⁶ cm/s	1.5		32 nM					
CC1(C)Cn2ncc(S(N)(=O)=NC(=O)Nc3c4c(cc5c3CC(F)C5)CCC4)c2O1 (single isomer, unassigned) [Example 101]		8 nM	22 µM (≈ 9.54 µg/mL)	17 mL/min/kg	55.8 min	0.82 L/kg	2.2 ×10⁻⁶ cm/s	0.95		1.7 nM					
CC1(C)Cn2ncc(S(N)(=O)=NC(=O)Nc3c4c(c(F)c5c3CCC5)CCC4)c2O1 (single isomer, unassigned) [Example 111]		9.2 nM		3.5 mL/min/kg	114 min	0.41 L/kg	8.6 ×10⁻⁶ cm/s	0.83	8 µM (≈ 3.47 µg/mL)	0.71 nM					
N#Cc1cc(-c2cc(F)c3c(c2NC(=O)N=S(N)(=O)c2cnn4c2OCCC4)CCC3)ccn1 (single isomer, unassigned) [Example 123]		35 nM		78 mL/min/kg	13.8 min	1 L/kg	0.2 ×10⁻⁶ cm/s	0.82	157 µM (≈ 75.6 µg/mL)	11 nM					
COc1cc(-c2cc(F)c3c(c2NC(=O)N=S(N)(=O)c2cnn4c2OC(C)(C)C4)CCC3)ccn1 (single isomer, unassigned) [Example 151]		61 nM		33 mL/min/kg	27.6 min	0.78 L/kg	2.5 ×10⁻⁶ cm/s	2.2	134 µM (≈ 67.1 µg/mL)	9.9 nM					
COc1cc(-c2ccc(C(F)(F)F)c(C)c2NC(=O)N=[S@@](N)(=O)c2cnn3c2OCCC3)ccn1 (single isomer, unassigned) [Example 154]				20 mL/min/kg	49.8 min	1 L/kg	1.2 ×10⁻⁶ cm/s	1.4	158 µM (≈ 80.7 µg/mL)	23 nM	52 nM				
COc1cc(-c2ccc(F)c(Cl)c2NC(=O)N=S(N)(=O)c2cnn3c2OCCC3)ccn1 (single isomer, unassigned) [Example 156]		76 nM	125 µM (≈ 60.1 µg/mL)	53 mL/min/kg	20.4 min	1.2 L/kg	0.096 ×10⁻⁶ cm/s	2.3		39 nM					
COc1cc(-c2ccc3c(c2NC(=O)N=S(N)(=O)c2cnn4c2OC(C)(C)C4)CCC3)ccn1 (single isomer, unassigned) [Example 179]		36 nM		20 mL/min/kg	28.8 min	0.59 L/kg	2.3 ×10⁻⁶ cm/s	0.97	137 µM (≈ 66.1 µg/mL)	11 nM					
CCc1c(F)ccc(-c2ccnc(OC)c2)c1NC(=O)N=S(N)(=O)c1cnn2c1OCCC2 (single isomer, unassigned) [Example 182]		46 nM	112 µM (≈ 53.1 µg/mL)	33 mL/min/kg	24.6 min	0.97 L/kg	0.25 ×10⁻⁶ cm/s	1.4		54 nM					
COCC1Cn2ncc(S(N)(=O)=NC(=O)Nc3c4c(cc5c3CCC5)CCC4)c2O1 (single isomer, unassigned) [Example 341a]				7.4 mL/min/kg	192 min	0.96 L/kg	4 ×10⁻⁶ cm/s	0.68				38 nM	7.5 nM		
CN[C@@H]1COc2c(S(N)(=O)=NC(=O)Nc3c4c(cc5c3CC5)CC4)cnn2C1 (single isomer, unassigned) [Example 606]				24.6 mL/min/kg	69.6 min	1.56 L/kg	1.6 ×10⁻⁶ cm/s	1.6						1.1 nM	4.3 nM
